Experimental data: patent publication US20120046273A1, “COMPOUNDS AND COMPOSITIONS FOR COGNITION-ENHANCEMENT, METHODS OF MAKING, AND METHODS OF TREATING” (MITHRIDION, INC., priority 2009, published 2012)
Structures can show the parent of a compound that is named as a salt. Where two headings read alike, the source gives them in different places.

How the values were obtained:
[1] = Brain concentrations in rats after oral gavage; assay type: in vivo, rat; details: for Brain Cmax (10 mg/kg po) MCD-386 = 1.00: rat, relative to MCD-386; for penetration into the brain: rats after oral dosing
Method: Long-Evans Hooded rats (Charles River: male, 250-350 g) were dosed with solutions of test compounds in PBS by oral gavage. At the desired time after dosing, the animals were anesthetized with isoflurane, and then euthanized by cervical dislocation. Blood was obtained by cardiac puncture, transferred to a 1.5 mL microcentrifuge tube containing 15U Heparin, and the plasma recovered after centrifugation. Brains were dissected, weighed, immediately chilled to 4° C., and homogenized using a PowerGen 125 homogenizer in five volumes of ice-cold 2% formic acid. Proteins were precipitated from plasma and brain homogenate with two and five volumes respectively of ice-cold 2% formic acid and clarified by centrifugation. The supernatant was ultra-filtered by centrifugation through a 3K MWCO spin column (Pall Life Sciences), following the manufacturer's instructions. The concentration of compound in the ultra-filtrate was subjected to reverse-phase liquid chromatography using a 150×2.1 mm Agilent C8 reverse-phase column on a Shimadzu Prominence LC, eluting the compounds with a gradient of 2% to 50% of acetonitrile+0.1% formic acid for compound MI-50,382, or an isocratic flow of 2% acetonitrile+0.1% formic acid for the rest of the compounds listed. The concentration of the compound in the column effluent was measured using an Applied Biosystems API-3200 triple quadrupole mass spectrometer equipped with an electrospray sample injection system. The counts of the characteristic parent and product ions of each test compound were converted to concentration units by comparison with a standard calibration curve.

[2] = molecular target: T1, rat M1 receptors (Rattus norvegicus, UniProt P08482); assay: PI turnover (inositol phosphate production) in M1-CHO cells; assay type: cell-based; details: for functional selectivity for M1- versus M3-subtype by PI turnover: cell lines expressing individual subtypes of muscarinic receptors; for M1/CHO PI turnover Relative Mean Smax: relative to mean Smax for carbachol (100.0)
T1 construct: host or cells: Chinese Hamster Ovary cells (M1-CHO)
T1 sequence (P08482 1-460): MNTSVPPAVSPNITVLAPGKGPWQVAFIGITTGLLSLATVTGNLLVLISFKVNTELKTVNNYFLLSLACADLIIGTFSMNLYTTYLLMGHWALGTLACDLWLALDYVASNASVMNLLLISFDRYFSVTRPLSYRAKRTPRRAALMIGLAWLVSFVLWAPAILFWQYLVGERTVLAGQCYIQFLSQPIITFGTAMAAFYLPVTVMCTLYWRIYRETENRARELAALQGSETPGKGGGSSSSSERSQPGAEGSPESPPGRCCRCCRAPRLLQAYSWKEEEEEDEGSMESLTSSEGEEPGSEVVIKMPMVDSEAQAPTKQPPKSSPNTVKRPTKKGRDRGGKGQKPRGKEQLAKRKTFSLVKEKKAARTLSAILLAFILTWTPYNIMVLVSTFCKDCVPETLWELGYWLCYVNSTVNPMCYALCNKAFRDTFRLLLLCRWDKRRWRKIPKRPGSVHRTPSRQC
Method: (§1) The medium was changed to 70 μL/well of inositol-free DMEM containing 2 mM glutamine, 10% FBS and 10 μCi/ml of [3H]-inositol (PE:cat # NET114A250UC), incubated overnight as above, then 100 μL of a solution of the test compound in HBSS containing 10 mM LiCl and 20 mM HEPES, pH 7.4 was added, incubation was continued for 60 min under the above conditions, and the test was stopped by removing the test compound and replacing with 100 μL of 50 mM formic acid in water at 4° C.

[3] = Metabolites in serum and urine of dosed rats (LC-MS); assay type: in vivo; details: rat serum/plasma or urine, oral dosing; hydrochloride
Method: Oxadiazoles disclosed herein as well as other oxadiazoles were investigated to determine the formation of metabolites. Animals were dosed, blood taken, serum prepared, serum proteins precipitated and ultrafiltrates prepared as described in Example 6. In separate experiments, urine was collected from rats for 16-24 hours after dosing, using standard metabolic cages. The urine container and collected urine were maintained at 4° C. Urine was lyophilized, taken back into water. The ultrafiltrate was prepared by adding formic acid to a final concentration of 1% to the urine samples, then filtered through a 0.2 um nylon membrane. The ultrafiltrate was subjected to LC-MS analysis. Instead of measuring the product ions in Q3, manual Q1 scans of the liquid chromatograph were undertaken, seeking parent ions of potential metabolites of the compounds. The criteria for identifying metabolites were as follows: (1) the ion should be present in the sera or urines of dosed rats, but not in sera or urines from non-dosed rats (2) the ion should be identifiable as a metabolic derivative of the dosed compound (e.g. loss of a functional chemical moiety, addition of a hydroxyl group or a glucuronic acid moiety, etc). Metabolites were determined not to be present if no compound meeting the above criteria could be detected in serum or urine.

[4] = molecular target: T2, rat M3 receptors (Rattus norvegicus, UniProt P08483); assay: PI turnover (inositol phosphate production) in M3-CHO cells; assay type: cell-based; details: relative to mean Smax for carbachol (100.0)
T2 construct: host or cells: Chinese Hamster Ovary cells (M3-CHO)
T2 sequence (P08483 whole entry): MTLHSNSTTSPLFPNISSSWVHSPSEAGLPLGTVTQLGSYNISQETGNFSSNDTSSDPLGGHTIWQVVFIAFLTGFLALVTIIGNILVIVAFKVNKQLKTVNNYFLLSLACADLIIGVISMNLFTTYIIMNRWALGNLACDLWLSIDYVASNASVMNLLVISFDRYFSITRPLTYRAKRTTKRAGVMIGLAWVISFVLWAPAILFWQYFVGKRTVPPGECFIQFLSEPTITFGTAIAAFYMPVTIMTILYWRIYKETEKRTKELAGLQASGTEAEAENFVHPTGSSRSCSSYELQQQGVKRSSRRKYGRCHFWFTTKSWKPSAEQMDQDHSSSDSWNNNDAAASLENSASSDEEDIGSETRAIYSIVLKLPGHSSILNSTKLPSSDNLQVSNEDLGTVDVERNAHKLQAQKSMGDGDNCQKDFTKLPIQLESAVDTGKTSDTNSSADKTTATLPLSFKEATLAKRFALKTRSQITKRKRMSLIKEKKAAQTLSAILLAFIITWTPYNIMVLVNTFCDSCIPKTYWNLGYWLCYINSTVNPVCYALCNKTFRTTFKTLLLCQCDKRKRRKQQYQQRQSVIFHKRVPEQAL
Method: as §1

[5] = Serum pharmacokinetics of immediate release capsules in human subjects; assay type: in vivo; details: male; for Cmax / half-life: oral
Method: The hydrochloride salt of MCD-386 (“MCD-386 HCl”) was formulated with the following excipients and loaded into #3 hard gelatin capsules (5mg dose) or #2 hard gelatin capsules (0.2 mg dose).
(§2) A single 5 mg capsule or 5×0.2 mg capsules (1 mg total dose) were administered orally to healthy male volunteer human subjects with 125 ml of water. Six such subjects receiving the 5 mg dose, and a different 6 subjects received the 1 mg dose.
Venous blood samples were drawn at various intervals after dosing from each subject into standard tubes for bioanalytical and pharmacokinetic analysis. The blood was allowed to clot, and the serum separated, using common clinical laboratory techniques. Serum samples were stored at −20 deg C. until used for analysis.
MCD-386 HCl, which exists in serum principally as the protonated form of MCD-386, was assayed in clinical serum samples as follows. 200 μL aliquots of serum samples were spiked with 50.0 μL of diluent for subject samples and QC samples and 50 μL of the appropriate intermediate standard solution for standards. Twenty five microliters (25.0 μL) of working internal standard stock solution and 40.0 μL of 10 N sodium hydroxide was then added and the samples were vortex mixed. Three milliliters (3.00 mL) of ethyl acetate was added followed by 5 minutes of vigorous vortexing and centrifugation. The top organic layer was transferred to a clean tube, evaporated to dryness, and the sample was reconstituted with 100 μL of diluent (0.1% formic acid). A 10 μL aliquot of this reconstituted sample was injected into Phenomenex Synergy 4 μ POLAR-RP, 75×2.0 mm (P/N 00C-4336-B0) on a Waters Acuity UPLC LC system, and eluted using a gradient of from 12% to 90% acetonitrile containing 0.1% formic acid/0.1% formic acid in water. The eluant flow of the LC was injected by Turbo Ion Spray (positive ion) into a Sciex API 4000 (Applied Biosystems). The MS/MS transitions monitored were 181.1 m/z to 111.0 m/z for MCD-386 HCl and 186.1 m/z to 111.1 m/z for the internal standard, D5- MCD-386 HCl. The calibration curve was linear between 0.100 ng/mL and 50.0 ng/mL for MCD-386 HCl. The lower limit of quantitation (LLOQ) was 0.100 ng MCD-386 HCl per mL of serum. MCD-386 HCl concentrations are expressed as free base.
The bioanalytical results were analyzed using Win Nonlin software and common pharmacokinetic methods known to those skilled in the art.

[6] = tested on: healthy male volunteer human subjects; assay: Cholinergic side effects of immediate release capsules in human subjects; assay type: in vivo
Method: as §2
Subjects were monitored, among other things, for typical signs of muscarinic cholinergic action, such as increased salivation, lachrimation and diaphoresis.

[7] = Metabolites in human serum samples; assay type: in vivo; details: 5mg dose cohort
Method: The bioanalytical method for the extraction of metabolites from serum samples entailed adding 450 uL of a 90% acetonitrile +0.1% formic acid solution to 50 uL of the serum samples. The samples were vortexed and centrifuged at 16,000×g at 4° C. for 10 minutes. The supernatants were transferred to 3K molecular weight cut-off (MWCO) spin filters (Pall, Nanosep, #82031-346). Samples were filtered by centrifugation at 13,000×g at 4° C. for 20 minutes. The filtrates were transferred to a 96-well plate and sealed for LC/MS/MS analysis. The system used for this analysis was a Shimadzu Prominence HPLC system. […] The autosampler was maintained at 4° C. Injection volumes for all samples and standards were 40 uL. MRM methods for two possible metabolites were made. An API 3200 triple-quadrupole mass spectrometer with a Turbo V source (Applied Biosystems) was used, following commonly used procedures which would be readily set up by a person skilled in the art of LC-MS/MS. The counts of the characteristic parent and product ions of the free base metabolites were converted to concentration units by comparison with a standard calibration curve.

[8] = tested on: rats; assay: Salivary flow in rats dosed orally; assay type: in vivo, rat
[9] = rat, in vivo, po

[2H]C([2H])(C)c1noc(C2CN=CNC2)n1 (centres unmarked) [Compound 66, 3-(2,2-d2-Ethyl)-5-(1,4,5,6-tetrahydropyrimidin-5-yl)-1,2,4-oxadiazole hydrochloride]
Brain Cmax (10 mg/kg po) MCD-386 = 1.00 [1]: 0.82
penetration into the brain [1]: penetrated into the brain
functional selectivity for M1- versus M3-subtype by PI turnover [2]: M1-subtype functionally selective muscarinic agonists
M1/CHO PI turnover Relative Mean Smax [2]: 84.0
Presence of metabolites (10 mg/kg po) [3]: No metabolites were identified and No
M3/CHO PI turnover Relative Mean Smax [4]: 15.1

CCc1noc(C2CN=CNC2)n1 (centres unmarked) [MCD-386 HCl, 5-(3-ethyl-1,2,4-oxadiazol-5-yl)-1,4,5,6-tetrahydropyrimidine]
Cmax ([5]; 6 subjects receiving 1 mg of MCD-386 HCl): ≤ 8 ng/mL
Cmax ([5]; 6 subjects receiving 5 mg of MCD-386 HCl): 7.9 to 25.2 ng/mL
Tmax ([5]; oral immediate release capsules): 1 to 1.5 h
half-life ([5]; 0.2 mg, cohort of 6 subjects receiving 0.2 mg, +/- SD, read-out: mean half-life (converted)): 1.2 h
half-life ([5]; 1 mg, 1 mg cohort, +/- SD, read-out: half-life of the free base (converted)): 1.44 h
half-life ([5]; 5 mg, 5 mg cohort excluding one subject, read-out: mean half-life for the other 5 subjects (converted)): 1.44 h
half-life ([5]; 5 mg, 5 mg cohort, +/- SD, read-out: half-life of the free base (converted)): 1.71 h
half-life ([5]; 5 mg, 5 mg cohort, subject with the longest half-life, read-out: half-life in one subject (converted)): 2.93 h
observable cholinergic side effects ([6]; 1 mg total dose cohort, 6 subjects): none of the subjects
subjects with mild hypersalivation ([6]; 5 mg cohort): One
subjects with mild, transient diaphoresis ([6]; 5 mg cohort): Two
subjects with moderate diaphoresis ([6]; 5 mg cohort): two
signs of muscarinic cholinergic activity ([6]; 5 mg cohort, 6 subjects): four subjects showed signs of muscarinic cholinergic activity
main metabolite of the free base identified in serum samples [7]: five out of six subjects

Cl.[2H]C([2H])([2H])c1noc(C2CN=CNC2)n1 (centres unmarked) [Compound 74, 3-(d3-methyl)-5-(1,4,5,6-tetrahydropyrimidin-5-yl)-1,2,4-oxadiazole hydrochloride]
salivary flow [8]: copious salivary flow
agonist efficacy at M1- and M3-subtype muscarinic receptors by PI turnover [2]: near full-agonist
functional selectivity for M1- versus M3-subtype by PI turnover [2]: not selective for the M1 subtype
M1/CHO PI turnover Relative Mean Smax [2]: 98.6

CNC(=C[N+](=O)[O-])NCCSCc1ccc(CN(C)C)o1 [Ranitidine, reference compound]
PAMPA (? × 106): 0.26 ? × 106
Brain/plasma ratio [9]: Very low

[2H]C([2H])([2H])C([2H])([2H])c1noc(C2CN=CNC2)n1 (centres unmarked) [Compound 70, 3-(1,1,2,2,2-d5-ethyl)-5-(1,4,5,6-tetrahydropyrimidin-5-yl)-1,2,4-oxadiazole hydrochloride]
Brain Cmax (10 mg/kg po) MCD-386 = 1.00 [1]: 0.61
penetration into the brain [1]: penetrated into the brain
functional selectivity for M1- versus M3-subtype by PI turnover [2]: M1-subtype functionally selective muscarinic agonists
M1/CHO PI turnover Relative Mean Smax [2]: 67.7
Presence of metabolites (10 mg/kg po) [3]: No metabolites were identified and No
M3/CHO PI turnover Relative Mean Smax [4]: 16.5
